From patent publication US20200253917A1 (priority 2017, published 2020)

Assays:
lactate [1] = assay type: in vivo; conditions: aged mice, sorted HFSCs at the end of the hair cycle experiment
Description: (§1) FIGS. 4A and 4B. Treatment with ETC inhibitors can accelerate the hair cycle in aged mice. FIG. 4A: Female mice were shaved at 17 months of age and then treated with vehicle or the indicated ETC inhibitor every other day for up to 30 days. Images taken over time indicate the ETC inhibition promotes a more complete re-growth of hair after shaving in aged mice. Quantification of phenotype emergence from two pairs of animals are presented on the right. Data shown are representative of three independent experiments with 10 mice each.
(§2) As mice age, the hair cycle is known to become protracted such that upon shaving, only portions of the backskin show regrowth of hair within a 1-2 months. Various batches of aged mice (at least 17 months) were treated for 30 days with ETC inhibitors to determine whether this metabolic manipulation could stimulate the hair cycle even in dormant follicles.

hair cycle [2] = assay type: in vivo; conditions: aged mice (at least 17 months), topical every other day for 30 days
Description: as §1, §2

lactate [3] = assay type: in vivo, mice; conditions: topical treatment for 48 hours or 10 days
Experimental: FIG. 2A: Mice were treated topically with the indicated ETC inhibitor for 48 hours. Total epidermis was isolated, lysed and subjected to LDH activity assay. Relative LDH activity is presented as the rate of activity over 30 min in two different animals. FIG. 2B: Mice were treated topically with ETC inhibitor for 48 hours (TOP) or 10 days (BOTTOM). Total epidermis was isolated, and metabolites were extracted and subjected to metabolomics. Heatmap indicates relative levels of metabolites related to glycolysis and the TCA cycle.
To determine the effect on cellular metabolism of ETC inhibition by Rotenone, Phenformin and Antimycin A, two measures of metabolic pathways were performed. First, LDH activity was quantified on cells isolated from the epidermis treated with ETC inhibitors for 48 hours (FIG. 2A). Next, metabolomics was employed on sorted HFSCs with and without treatment for either 48 hours or 10 days.

[4] = system: hair follicle stem cells (HFSCs); assay type: in vivo, mice; conditions: topically treated skin, a week after treatment
hair follicles = assay type: in vivo; conditions: backskin of topically treated telogen mice
Experimental: (§3) FIG. 1A: Mice were shaved at day 50 (Telogen) and topically treated with Phenformin (5 uM) every other day for 2-3 weeks. […] FIG. 1B: Quantification of changes to the hair cycle in treatment and control. Quantification performed across 13 vehicle and 9 Phenformin treated male mice. FIG. 1C: Changes to the thickness of the epidermis, dermis and hypodermis were assessed microscopically and quantified. […] Scale bars for D indicate 25 micrometers.
(§4) FIG. 3A: Mice were shaved at day 50 (Telogen) and topically treated with antimycin A or Rotenone every other day for 2-3 weeks. […] FIG. 3B: Quantification of changes to the hair cycle in treatment and control. Quantification was performed with 13 vehicle treated, 11 Rotenone treated, and 9 Antimycin A treated male animals. FIG. 3C: Changes to the thickness of the epidermis, dermis and hypodermis were assessed microscopically and quantified. FIG. 3D: Immunolocalization was performed to detect evidence of inflammation due to topical application of ETC inhibitors. Both vehicle and ETC inhibitor treated skin was immunostained for phosphor-EGFR ([…]), CD11b (marker of macrophages), and IL6 (Chemokine). Vehicle treated skin from a wounded animal with hyperplastic epidermis was used as a positive control for markers of inflammation. Scale bars indicate 50 micrometers.
These findings were also in stark contrast to previous studies showing that transgenic abrogation of the ETC led to hair follicle degeneration.

hair cycle [5] = assay type: in vivo; conditions: mice shaved at day 50 (Telogen); for pigmentation in response to treatment: topical every other day for 2-3 weeks
Experimental: as §3, §4
To determine whether manipulation of ETC activity could affect HFSC activation, various inhibitors of ETC components were topically applied to mice during a resting phase of the hair cycle. The topical formulation was prepared by suspending the active ingredient in PLO Ultramax Gel (lecithin organogel). At postnatal day 50, the hair follicle is in telogen, a resting phase where the stem cells of the follicle are quiescent until the start of the next hair cycle at day 70-80. Rotenone, Phenformin, and Antimycin A are established inhibitors of […], respectively. Animals were shaved at postnatal day 47 and treated with the indicated compounds or vehicle on the shaved area every 48 hours for the indicated duration. […]

Row | Compound | lactate pool levels (metabolomics) (lactate [1]) | hair regrowth across the backskin after shaving (hair cycle [2]) | lactate levels and glycolytic intermediates (metabolomics) (lactate [3]) | HFSC activation (Sox9 and Ki-67 immunohistochemistry) [4] | H and E staining / histological analysis of the hair cycle (hair follicles) | pigmentation in response to treatment (hair cycle [5]) | pigmentation and hair growth in response to treatment (hair cycle [5]; topical Phenformin 5 uM every other day for 2-3 weeks, at 10 and 16 days)
1 | C=C(C)[C@H]1Cc2c(ccc3c2O[C@@H]2COc4cc(OC)c(OC)cc4[C@@H]2C3=O)O1 [Rotenone] | increase in lactate pool levels | more complete hair regrowth across the entire backskin | increase in lactate levels as well as several other glycolytic intermediates | HFSCs became activated | advancement of the hair cycle | new pigmentation | –
2 | [H]/N=C(/N)N/C(=N/[H])NCCc1ccccc1 [Phenformin] | increase in lactate pool levels | more complete hair regrowth across the entire backskin | increase in lactate levels as well as several other glycolytic intermediates | HFSCs became activated | advancement of the hair cycle | – | new pigmentation and then hair growth
3 | Antimycin A | increase in lactate pool levels | more complete hair regrowth across the entire backskin | increase in lactate levels as well as several other glycolytic intermediates | HFSCs became activated | advancement of the hair cycle | new pigmentation | –
